According to patent publication US20070196434A1, “Methods of preventing or treating sinusitis with oxidative reductive potential water solution” (priority 2006, published 2007):
Like-named read-outs stand apart in the source and are kept apart here. Bridge positions count the residues as written; N and C are the ends. Square brackets hold non-standard residues; d marks the D form. Peptide text beside a SMILES is read from it. * marks the point of attachment. Ileψ(thiazoline)Cys = CC[C@H](C)[C@H](N)C1=N[C@H](C(=O)*)CS1; dOrn = NCCC[C@@H](N)C(=O)O

What was measured:
[1] = test system: spore suspension of B. atropheus; assay: Bacterial suspension assay, spores; assay type: cell-based; conditions: 5, and 20 minute time points at 20° C.; Bacitracin 33 Units/ml
Description: Dermacyn is a ready to use product, therefore performing dilutions during testing was not required.
A purchased spore suspension of B. atropheus at 2.5×10^7 /ml was used for testing. In addition fresh suspensions of Pseudomonas aeruginosa, and Staphylococcus aureus were prepared and measured using a spectrophotometer to ensure the titer was acceptable
Nine microliters of test substance was added to 100 ul of microbe suspension. The test mixture was held at 20° C. for the contact times of 20 seconds, 5 minutes, and 20 minutes. 1.0 ml of the test mixture (entire mixture) was added to 9,0 ml of neutralizer for 20 minutes (this is the original neutralization tube or ONT) 1.0 ml of the neutralized test mixture was plated on Tryptic Soy Agar in duplicate for the 5 minute and 20 minute contact times. Additional dilutions and spread plates were used for the 20 second time point, to achieve countable plates.
All plates were incubated at 30° C.-35° C. for a total of 3 days and were evaluated after each day of incubation.

[2] = test system: Pseudomonas aeruginosa, and Staphylococcus aureus; assay: Bacterial suspension assay, vegetative bacteria; assay type: cell-based; conditions: all time points (20 seconds, 5 minutes, 20 minutes) at 20° C.; Bacitracin 33 Units/ml
[3] = test system: human diploid fibroblasts (HDFs); assay type: cell-based; conditions: 880 mM
Description: HP is known to be toxic to eukaryotic cells, increasing apoptosis and necrosis and reducing cellular viability. […] HDF cultures were obtained from three different foreskins, which were pooled and cryopreserved together for the purpose of this study. Only diploid cells were used for all experiments. […] Simultaneous analyses of these parameters were performed in the same cell populations by flow cytometry using: […] B) Annexin V-FITC; and C) Propidium iodide. FIG. 4A-4C disclose percentage values expressed as mean±SD (n=3).

[4] = test system: human diploid fibroblasts (HDFs); conditions: 1 month, 5 μM

Row | SMILES | log reduction of spores [1] | log reduction of the vegetative bacteria [2] | Cell viability ([3]; 5 min) | apoptosis (Annexin-V) ([3]; 5 min) | necrosis (cells incorporating propidium iodide) ([3]; 5 min) | Cell viability ([3]; 30 min) | apoptosis (Annexin-V) ([3]; 30 min) | necrosis (cells incorporating propidium iodide) ([3]; 30 min) | RNA degradation (human cell cultures) | cells with SA-β-Gal expression [4]
1 | CC[C@H](C)[C@H](N)C1=N[C@H](C(=O)N[C@@H](CC(C)C)C(=O)N[C@H](CCC(=O)O)C(=O)N[C@H](C(=O)N[C@H]2CCCCNC(=O)[C@H](CC(N)=O)NC(=O)[C@@H](CC(=O)O)NC(=O)[C@H](Cc3cnc[nH]3)NC(=O)[C@@H](Cc3ccccc3)NC(=O)[C@H]([C@@H](C)CC)NC(=O)[C@@H](CCCN)NC2=O)[C@@H](C)CC)CS1 [Bacitracin] ({Ileψ(thiazoline)Cys}-L[dE]IK[dOrn]I[dF]H[dD]N; lactam 4-C) | no evidence of lowering the bacterial or spore populations | no evidence of lowering the bacterial or spore populations | – | – | – | – | – | – | – | –
2 | OO [HP, hydrogen peroxide] | – | – | 55% | 15% | 20% | 5% | 20% | 75% | significant RNA degradation | 86%
